The series relates to GENE-TOX genotoxicity assays, various organisms and cells. In words: GENE-TOX mutagenicity studies. The note with it: for call: Assay Type: In vivo carcinogenicity studies, Assay Code: CCG+.
The mark [1] stands for this setting: Species/Cell Type: Nonhuman, Assay Type: Chromosome aberrations in vitro, Assay Code: CY&-, Evaluation Type: Evaluation A (Pre-1980).
Where [2] appears, read: Species/Cell Type: Escherichia coli polA (W3119 vs P3478), Assay Type: Rec-assay, DNA effects (bacterial DNA repair), Assay Code: RE1+, Evaluation Type: Evaluation A (Pre-1980).
Setting [3] is: Species/Cell Type: Drosophila melanogaster, Assay Type: Sex-linked recessive lethal gene mutation, Assay Code: SRL+, Evaluation Type: Evaluation A (Pre-1980).
The mark [4] stands for this setting: Species/Cell Type: Mammalian polychromatic erythrocytes, Assay Type: Micronucleus test, chromosome aberrations, Assay Code: MNT+, Evaluation Type: Evaluation A (Pre-1980).
Setting [5] is: Species/Cell Type: Saccharomyces cerevisiae, Assay Type: Mitotic recombination or gene conversion, Assay Code: YEC+, Evaluation Type: Evaluation A (Pre-1980).
[6] abbreviates: Species/Cell Type: Chinese hamster lung (V79) cells, Assay Type: Forward gene mutation at the HPRT or ouabain locus, Assay Code: V79+*, Activation: With metabolic activation, Evaluation Type: Evaluation A (Pre-1980).
Where [7] appears, read: Species/Cell Type: Nonhuman, Evaluation Type: Evaluation A (Pre-1980).
[8] abbreviates: Species/Cell Type: Salmonella typhimurium (one or more of the five standard strains: TA98, TA100, TA1535, TA1537, and TA1538), Assay Type: Histidine reverse gene mutation, Ames assay, Assay Code: SAL+*, Activation: With metabolic activation, Evaluation Type: Evaluation A (Pre-1980).
[9] abbreviates: Species/Cell Type: Salmonella typhimurium (one or more of the five standard strains: TA98, TA100, TA1535, TA1537, and TA1538), Assay Type: Histidine reverse gene mutation, Ames assay, Assay Code: SAL+, Evaluation Type: Evaluation A (Pre-1980).

Active and inactive are the calls of the source. How the calls were made is not given here.

Take `CC(C)=O`: the mutagenic call by setting is: (Species/Cell Type: Arabidopsis species, Assay Type: Gene mutation, Assay Code: ARM-, Evaluation Type: Evaluation A (Pre-1980)) “inactive; negative”; (Species/Cell Type: Fischer rat embryo (RLV/1706) cells, Assay Type: Cell transformation, viral enhanced, Assay Code: CTR-, Evaluation Type: Evaluation A (Pre-1980)) “inactive; negative”; (Species/Cell Type: Human, Assay Type: Sister-chromatid exchange (SCE) in vitro, Assay Code: SC1T, Evaluation Type: Evaluation B (Post-1980)) “no conclusion”; (Species/Cell Type: Mammalian polychromatic erythrocytes, Assay Type: Micronucleus test, chromosome aberrations, Assay Code: MNT-, Evaluation Type: Evaluation B (Post-1980)) “inactive; negative”; (Species/Cell Type: Mouse embryo (AKR/ME) cells, Assay Type: Cell transformation, Assay Code: CTK-, Evaluation Type: Evaluation A (Pre-1980)) “inactive; negative”; under setting [1], “inactive; negative”. Further, the mutagenic call runs as follows: (Species/Cell Type: Nonhuman, Assay Type: Sister-chromatid exchange (SCE) in vitro, Assay Code: SC2-, Evaluation Type: Evaluation A (Pre-1980)) “inactive; negative”; (Species/Cell Type: Salmonella typhimurium (one or more of the five standard strains: TA98, TA100, TA1535, TA1537, and TA1538), Assay Type: Histidine reverse gene mutation, Ames assay, Assay Code: SAL-, Evaluation Type: Evaluation A (Pre-1980)) “inactive; negative”; (Species/Cell Type: Syrian hamster embryo (SHE) cells, Assay Type: Cell transformation, clonal assay, Assay Code: CTC-, Evaluation Type: Evaluation A (Pre-1980)) “inactive; negative”.
As to `NOS(=O)(=O)O`, under setting [2], the mutagenic call was “active; positive”.
Still for that read-out and setting: in the case of `CC(C)C(Br)Br` it was “active; positive”.
Turning to `O=C=Nc1ccc2ccccc2c1`, the mutagenic call (Species/Cell Type: Nonhuman, Assay Type: Sister-chromatid exchange (SCE) in vitro, Assay Code: SC2+D, Dose Response: With dose response, Evaluation Type: Evaluation B (Post-1980)) is “active; positive”.
Regarding `CN(C)c1ccccc1N=Nc1ccccc1`, the mutagenic call (Species/Cell Type: Salmonella typhimurium, Assay Type: Forward and reverse gene mutation, host-mediated assay, Assay Code: HMA+, Evaluation Type: Evaluation A (Pre-1980)) was “active; positive”.
Regarding `CN(C)N=Nc1ccc(Cl)cc1`, the mutagenic call was “active; positive” under setting [3], “active; positive” under setting [4] and “active; positive” under setting [5].
As to `OCc1c2ccccc2c2ccc3cccc4ccc1c2c43`, the mutagenic call under setting [6] is “active; positive”, the mutagenic call under setting [3] was “active; positive” and the mutagenic call under setting [8] is “active; positive”. Besides, the call under setting [7] was “active; positive”.
Turning to `COc1cc([N+](=O)[O-])c2ncccc2c1`, the mutagenic call under setting [9] is “active; positive”.
For the compound `Nc1ccc(N=Nc2ccc(-c3ccc(N=Nc4c(S(=O)(=O)O)cc5c(c4N)C(=O)/C(=N/Nc4ccccc4)C(S(=O)(=O)O)=C5)cc3)cc2)c(N)c1`, under “Species/Cell Type: Drosophila melanogaster, Assay Type: Sex-linked recessive lethal gene mutation, Assay Code: SRL-, Evaluation Type: Evaluation A (Pre-1980)”, the mutagenic call was “inactive; negative”. Moreover, under setting [7], the call was “active; positive”.
`CC[C@@]1(O)C[C@H](O[C@H]2C[C@H](NC)[C@H](O)[C@H](C)O2)c2c(cc3c(c2O)C(=O)c2c(O)cccc2C3=O)[C@H]1C(=O)OC`: the mutagenic call (Species/Cell Type: Salmonella typhimurium (one or more of the five standard strains: TA98, TA100, TA1535, TA1537, and TA1538), Assay Type: Histidine reverse gene mutation, Ames assay, Assay Code: SALT, Evaluation Type: Evaluation A (Pre-1980)) is on record as “no conclusion”.
Regarding `[O-][n+]1ccccc1`, the mutagenic call reads like this: (Species/Cell Type: Bacillus subtilis (H17 vs M45), Assay Type: Rec-assay, spot test, DNA effects (bacterial DNA repair), Assay Code: REW+, Evaluation Type: Evaluation A (Pre-1980)) “active; positive”; (Species/Cell Type: Escherichia coli polA (W3119 vs P3478), Assay Type: Rec-assay, DNA effects (bacterial DNA repair), Assay Code: RE1-, Evaluation Type: Evaluation A (Pre-1980)) “inactive; negative”.
For the compound `C=C/C=C/Cl`, under setting [3], the mutagenic call was “active; positive”.
Consider `CN(CCCCC(=O)OC[C@H](N)C(=O)O)N=O`, for which the mutagenic call is “no conclusion” (Species/Cell Type: Escherichia coli polA (W3110 vs P3478), Assay Type: Rec-assay, DNA effects (bacterial DNA repair), Assay Code: RE2T, Evaluation Type: Evaluation A (Pre-1980)) and “no conclusion” (Species/Cell Type: Escherichia coli polA (W3119 vs P3478), Assay Type: Rec-assay, DNA effects (bacterial DNA repair), Assay Code: RE1T, Evaluation Type: Evaluation A (Pre-1980)).
Consider `C[n+]1c2ccccc2cc2ccccc21`, for which the mutagenic call (Species/Cell Type: Saccharomyces cerevisiae, Assay Type: Forward gene mutation, Assay Code: YEFT, Evaluation Type: Evaluation A (Pre-1980)) is on record as “no conclusion”.
On to `CN(C)N=Nc1ccc(Br)cc1`, for which the mutagenic call reads like this: under setting [3], “active; positive”; under setting [4], “active; positive”; under setting [5], “active; positive”.
In the case of `CC(=O)c1ccc([N+](=O)[O-])[nH]1`, the mutagenic call under setting [9] is “active; positive”.
As to `Cc1ccc2cc3c(ccc4ccccc43)c3c2c1CC3`, the mutagenic call under setting [6] was “active; positive”; the mutagenic call (Species/Cell Type: Chinese hamster lung (V79) cells, Assay Type: Forward gene mutation, host-mediated assay, Assay Code: HMG+, Evaluation Type: Evaluation A (Pre-1980)) is “active; positive”; the mutagenic call (Species/Cell Type: Chinese hamster ovary (CHO) cells, Assay Type: Forward gene mutation at the HPRT locus, Assay Code: CHO+*, Activation: With metabolic activation, Evaluation Type: Evaluation B (Post-1980)) is “active; positive”; the mutagenic call (Species/Cell Type: Drosophila melanogaster, Assay Type: Sex-linked recessive lethal gene mutation, Assay Code: SRLT, Evaluation Type: Evaluation A (Pre-1980)) is “no conclusion”; the mutagenic call (Species/Cell Type: Fischer rat embryo (RLV/1706) cells, Assay Type: Cell transformation, viral enhanced, Assay Code: CTR+, Evaluation Type: Evaluation A (Pre-1980)) is “active; positive”; the mutagenic call (Species/Cell Type: Fischer rat embryo (SA7/RE) cells, Assay Type: Cell transformation, viral enhanced, Assay Code: CTA+, Evaluation Type: Evaluation A (Pre-1980)) was “active; positive”. The mutagenic call reads like this: (Species/Cell Type: Human diploid fibroblasts, Assay Type: Unscheduled DNA synthesis (UDS) in vitro, DNA effects, Assay Code: UDH+, Evaluation Type: Evaluation A (Pre-1980)) “active; positive”; (Species/Cell Type: Human lymphocytes, Assay Type: Sister-chromatid exchange (SCE) in vitro, Assay Code: SCL+D, Dose Response: With dose response, Evaluation Type: Evaluation B (Post-1980)) “active; positive”; (Species/Cell Type: Human, Assay Type: Sister-chromatid exchange (SCE) in vitro, Assay Code: SC1+D, Dose Response: With dose response, Evaluation Type: Evaluation B (Post-1980)) “active; positive”; (Species/Cell Type: Mammalian polychromatic erythrocytes, Assay Type: Micronucleus test, chromosome aberrations, Assay Code: MNTT, Evaluation Type: Evaluation A (Pre-1980)) “no conclusion”; (Species/Cell Type: Mouse (BALB/c-3T3) cells, Assay Type: Cell transformation, Assay Code: CTB+D, Dose Response: With dose response, Evaluation Type: Evaluation A (Pre-1980)) “active; positive”; (Species/Cell Type: Mouse (C3H/10T1/2) cells, Assay Type: Cell transformation, Assay Code: CTH+D, Dose Response: With dose response, Evaluation Type: Evaluation A (Pre-1980)) “active; positive”. The mutagenic call is “active; positive” (Species/Cell Type: Mouse embryo (AKR/ME) cells, Assay Type: Cell transformation, Assay Code: CTK+, Evaluation Type: Evaluation A (Pre-1980)); “active; positive” (Species/Cell Type: Mouse prostate cells, Assay Type: Cell transformation, Assay Code: CTM+D, Dose Response: With dose response, Evaluation Type: Evaluation A (Pre-1980)); “active; positive” (Species/Cell Type: Mouse, Sex: Male, Assay Type: Sperm morphology, Assay Code: SPI+, Evaluation Type: Evaluation A (Pre-1980)); “active; positive” (Species/Cell Type: Neurospora crassa, Assay Type: Forward gene mutation, Assay Code: NEF+, Evaluation Type: Evaluation A (Pre-1980)); “inactive; negative” under setting [1]; “active; positive” (Species/Cell Type: Nonhuman, Assay Type: Sister-chromatid exchange (SCE) in vitro, Assay Code: SC2+, Evaluation Type: Evaluation A (Pre-1980)). In addition, the mutagenic call (Species/Cell Type: Nonhuman, Assay Type: Sister-chromatid exchange (SCE) in vivo, Assay Code: SC3+D, Dose Response: With dose response, Evaluation Type: Evaluation A (Pre-1980)) is “active; positive”; the mutagenic call (Species/Cell Type: Rat primary hepatocytes, Assay Type: Unscheduled DNA synthesis (UDS) in vitro, DNA effects, Assay Code: UDP+D, Dose Response: With dose response, Evaluation Type: Evaluation A (Pre-1980)) is “active; positive”; the mutagenic call under setting [8] is “active; positive”; the mutagenic call (Species/Cell Type: Salmonella typhimurium, Assay Type: Forward and reverse gene mutation, body fluid assay, Assay Code: BFU-, Evaluation Type: Evaluation A (Pre-1980)) was “inactive; negative”; the mutagenic call (Species/Cell Type: Syrian hamster embryo (SA7/SHE) cells, Assay Type: Cell transformation, viral enhanced, Assay Code: CT7+, Evaluation Type: Evaluation A (Pre-1980)) is “active; positive”; the mutagenic call (Species/Cell Type: Syrian hamster embryo (SHE) cells, Assay Type: Cell transformation, clonal assay, Assay Code: CTC+D, Dose Response: With dose response, Evaluation Type: Evaluation A (Pre-1980)) was “active; positive”. For the same compound, the mutagenic call (Species/Cell Type: Syrian hamster embryo (SHE) cells, Assay Type: Cell transformation, focus assay, Assay Code: CTF+, Evaluation Type: Evaluation A (Pre-1980)) was “active; positive”. In addition, the call under setting [7] was “active; positive”.

The values are drawn from PubChem BioAssay AID1259408 (Genetic Toxicology Data Bank (GENE-TOX), 2018).
